# Reference: patent publication US20100008965A1, “BIOCOMPATIBLE MEDICAL PRODUCTS HAVING ENHANCED ANTI-THROMBOGENIC PROPERTIES” (priority 2008, published 2010)
# Tested on: HCAEC
# Test: alpha-4 integrin function blocking cell binding assay, HCAEC
# Format: cell-based, human
# Conditions: 0.5 μg antibody per 5×10^4 cells, 8 h; CS-1 p<0.05
# Experimental: To verify that HCAEC or HUVEC adhesion to immobilized CS-1 polypeptides is specifically mediated via alpha-4-containing integrin heterodimers, alpha-4 integrin function blocking cell binding assays were performed. RGDS, EILEVPST, and CS-1 polypeptides were immobilized in Immobilizer™ Amino 96-well microplates. Microplate wells were prepared as described above. Trypsinized HCAEC or HUVEC suspensions were manually counted, aliquoted into two groups, and incubated for one hour on ice with one of the following antibodies at a concentration of 0.5 μg antibody per 5×10^4 cells: (a) mouse monoclonal IgG1 anti-human alpha-4-integrin (CD49d, clone P1H4) (Chemicon), or (b) mouse monoclonal IgG1 anti-human isotype-matched control (R&D Systems). Next, 5×10^4 cells suspended in their respective basal medium were added to wells containing immobilized peptide polypeptides and incubated for eight hours at 37° C. and a 5% CO2 atmosphere. Adherent cells were analyzed via crystal violet staining as described previously.
# To differentiate whether HCAEC and HUVEC adhere to CS-1 peptides via an alpha-4 integrin-specific interaction, HCAEC and HUVEC adhesion assays to CS-1, RGDS, and EILEVPST peptides were performed following one hour endothelial cell incubations with either an alpha-4 integrin function blocking antibody or an IgG isotype-matched control antibody. The EILEVPST peptide served as the negative control cell adhesion peptide. The RGDS peptide served as an additional control. Endothelial cell adhesion to RGDS is primarily mediated by alpha-5-beta-1 integrins. Therefore, alpha-4 integrin function blocking should not have a significant effect on adhesion to RGDS. Thus, specificity of HCAEC and HUVEC binding to CS-1 via alpha-4 integrins could be tested.
substance,measurement,value
"CS-1: full-length 25 amino acid polypeptide, first 25 amino acid sequence of the fibronectin type IIICS domain (DELPQLVTLPHPNLHGPEILDVPST; Homo sapien)",difference in HCAEC adhesion between IgG isotype control and alpha-4 integrin blocking antibody treated cells,A statistical difference was achieved
